Laboratory results: patent publication US20250223561A1, “PHARMACEUTICAL COMPOSITION CONTAINING miR-140 AND METHOD FOR PRODUCING SAME” (HIROKO SCIENCE INC., priority 2022, published 2025)
“And” between values parts separate entries of the source, which are not always exact repeats. Equal values may be shown once.

What was measured:
[1] = tested on: immortalized chondrocytes; test: Total RNA extracted from exosomal fractions of immortalized chondrocytes treated with exosome release enhancers (Nano Drop); format: cell-based, human; conditions: for Nucleic Acid conc.: RNA from exosomal fraction of culture supernatant, cells cultured with 10 nM estradiol, enhancer added on day four (10 uM monensin, 20 nM aplimod, 10 uM D609), Nano Drop, dilution ratio 1; for Amount of RNAs: same samples, liquid volume 15 ul
Description: (§1) The fifth passage of immortalized chondrocytes was passaged and seeded in four flasks with a volume of 75 cm^2 at a concentration of 1.5×10^6 cells per flask. Culturing was started after adding 10 nM of estradiol to three of them and without adding it to one of them. […] The medium was collected from each flask the following day and then centrifuged at 1,500 rpm for 5 min. The supernatants were further filtered through a filter with a pore size of 0.22 um and stored as exosomal fractions at −80° C. until an analysis of miR.
MicroRNAs were extracted from the exosomal fractions in Example 2 using an exoRNAeasy Serum/Plasma Maxi Kit (Qiagen). The A260/A280 and A260/A230 ratios of the extracted RNAs were measured using a spectrophotometer Nano Drop One (Thermo Fisher Scientific), showing that the samples were free of protein and salt impurities. Electrophoresis of the samples was further conducted using Agilent 2100 Bioanalyzer (Aligent Technologies), confirming that only the target nucleic acids were contained.

miR-140 = test: Expression of miR-140 in exosomal fractions by real-time PCR; format: cell-based, human; conditions: for Cp value: Hs miR-140_1 primer assay (miR-140-5p), single replicates n1, n2, low Cp value means a large amount of miR-140; for Cp value Average: Hs miR-140_1 primer assay, average of n1 and n2
Description: as §1
cDNA synthesis was conducted with the extracted RNAs using miScript II RT Kit (catalog No. 218160, Qiagen) under the following conditions.
Real-time PCR reactions were conducted on a real-time PCR system (LightCycler 480, Roche) under the following conditions using miScript SYBR Green PCR Kit (catalog No. 218073, Qiagen) with the cDNAs synthesized as described above. The primer for the miR-140 measurement was Hs_miR-140_1 miScript Primer Assay (catalog No. MS00003500, has-miR-140-5p: MIMAT0000431).

Row | Structure (SMILES) | Nucleic Acid conc. [1] [ng/µL] | Amount of RNAs [1] [ng] | Cp value (miR-140; listed as 3-Apl) | Cp value Average (miR-140) | amount of nucleic acid collected (comparison among treatments) ([1]; compared with control, aplimod and D609 samples) | miR-140 content compared with the other groups (miR-140; from real-time PCR Cp values) | Cp value (miR-140; listed as 4-D)
1 | Cc1cccc(/C=N/Nc2cc(N3CCOCC3)nc(OCCc3ccccn3)n2)c1 [Apl, aplimod] | 179.7 | 2695.9 | 36.78 and 36.76 | 36.77 | – | – | –
2 | CC[C@@]1([C@@H]2O[C@@H]([C@H]3O[C@@](O)(CO)[C@H](C)C[C@@H]3C)C[C@@H]2C)CC[C@H]([C@]2(C)CC[C@]3(C[C@H](O)[C@@H](C)[C@@H]([C@@H](C)[C@@H](OC)[C@H](C)C(=O)O)O3)O2)O1 [Mo, monensin] | 290.5 | 4357.6 | – | – | highest | nearly twice as much miR-140 as the others | –
3 | S=C(S)OC1CC2CC1C1CCCC21 (stereo not drawn) [D, D609] | 206.3 | 3094.4 | – | 36.87 | – | – | 36.84 and 36.89
